Test results as given in patent publication US8741910B2, “Soluble guanylate cyclase activators” (Merck Sharp & Dohme Corp., priority 2008, dated 2014).
pEC50: −log10 of the molar value.

Target: T1, sGC α1/β1 heterodimer (Homo sapiens, UniProt Q02108+Q02153)
T1 construct: expressed in transfected cells; host or cells: CHO-K1 (clone #7, CHO-K1/sGC)
T1 sequence (Q02108 1-690): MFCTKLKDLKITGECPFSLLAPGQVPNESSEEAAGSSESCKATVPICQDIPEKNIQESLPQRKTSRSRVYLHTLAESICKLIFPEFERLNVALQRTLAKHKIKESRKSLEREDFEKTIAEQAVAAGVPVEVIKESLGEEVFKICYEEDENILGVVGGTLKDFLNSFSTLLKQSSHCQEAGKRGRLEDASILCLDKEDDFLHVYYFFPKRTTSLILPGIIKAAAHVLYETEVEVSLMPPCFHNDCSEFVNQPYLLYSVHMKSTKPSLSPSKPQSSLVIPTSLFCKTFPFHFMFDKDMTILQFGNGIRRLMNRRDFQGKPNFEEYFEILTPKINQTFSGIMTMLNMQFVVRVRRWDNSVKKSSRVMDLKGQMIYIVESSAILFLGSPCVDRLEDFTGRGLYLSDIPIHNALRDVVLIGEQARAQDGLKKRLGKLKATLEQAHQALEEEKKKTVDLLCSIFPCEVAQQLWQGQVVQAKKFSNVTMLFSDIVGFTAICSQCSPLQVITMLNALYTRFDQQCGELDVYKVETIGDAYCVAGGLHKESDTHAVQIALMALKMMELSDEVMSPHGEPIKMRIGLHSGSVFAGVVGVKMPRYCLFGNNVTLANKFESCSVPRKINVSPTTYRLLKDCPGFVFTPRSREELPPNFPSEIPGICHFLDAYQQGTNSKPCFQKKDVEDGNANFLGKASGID
T1 sequence (Q02153 1-619): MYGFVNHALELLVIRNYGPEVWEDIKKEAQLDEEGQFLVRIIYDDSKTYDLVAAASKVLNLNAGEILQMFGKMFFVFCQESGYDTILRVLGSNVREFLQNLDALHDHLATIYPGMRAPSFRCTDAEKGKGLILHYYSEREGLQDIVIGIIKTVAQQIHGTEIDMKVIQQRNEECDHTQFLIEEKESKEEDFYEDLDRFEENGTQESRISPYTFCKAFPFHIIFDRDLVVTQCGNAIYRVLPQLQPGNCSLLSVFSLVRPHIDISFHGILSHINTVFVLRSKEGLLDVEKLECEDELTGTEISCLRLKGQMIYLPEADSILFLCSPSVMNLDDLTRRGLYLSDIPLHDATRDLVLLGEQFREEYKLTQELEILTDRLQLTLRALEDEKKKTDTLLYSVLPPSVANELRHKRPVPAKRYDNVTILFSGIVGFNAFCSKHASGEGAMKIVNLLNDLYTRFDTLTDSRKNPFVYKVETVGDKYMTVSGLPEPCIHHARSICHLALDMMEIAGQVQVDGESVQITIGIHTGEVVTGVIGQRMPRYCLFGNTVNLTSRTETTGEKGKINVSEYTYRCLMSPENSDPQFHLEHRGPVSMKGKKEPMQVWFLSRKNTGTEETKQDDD
Assay: Cell-Based sGC Functional Assay (CASA Assay)
Conditions: CHO-K1/sGC cells, intracellular cGMP by HTRF, 1 hr at 37 °C
Text: Increases in cGMP levels affect several physiological processes including vasorelaxation through multiple downstream pathways. […] Heme-dependent activators (HDAs) preferentially activate sGC containing a ferrous heme group. To determine the effect of sGC activators on enzyme activity, the CASA assay was developed to monitor the generation of cGMP in a cell line that stably expresses the heterodimeric sGC protein.
A CHO-K1 cell line stably expressing the sGC α1/β1 heterodimer was generated using a standard transfection protocol. CHO-K1 cells were transfected with plasmids pIREShyghsGCα1 and pIRESneo-hsGCβ1 simultaneously using FUGENE reagent. Clones that stably express both subunits were selected with hygromycin and neomycin for ˜2 weeks. Clone #7 was chosen for the assay and was designated CHO-K1/sGC. CHO-K1/sGC cells were maintained in F-K12 medium containing 10% heat-inactivated Fetal Bovine Serum (FBS), 100 μg/mL penicillin/streptomycin, 0.5 mg/mL hygromycin and 0.25 mg/mL G418. […] IBMX (3-isobutyl-1-methylxanthin, 0.5 mM) was added to inhibit degradation of cGMP. Compounds were diluted from DMSO stock solutions and added to the assay at a final DMSO concentration of 1%. […] At the end of the incubation period, the reaction was terminated and the cells were lysed. The level of intracellular cGMP was determined using an HTRF-based assay kit (CisBio, 62GM2PEC), which detects the displacement of a fluorescence labeled cGMP from its specific antibody.

Row | Structure (SMILES) | pEC50
1 | CC1(C)C(=O)Nc2nc(-c3nc(Cc4c(F)ccc(F)c4F)n4cc(Cl)ccc34)nc(N)c21 [Example 59, 4-amino-2-[6-chloro-3-(2,3,6-trifluorobenzyl)imidazo[1,5-a]pyridin-1-yl]-5,5-dimethyl-5,7-dihydro-6H-pyrrolo[2,3-d]pyrimidin-6-one] | 7.62
2 | CC1(C)C(=O)Nc2nc(-c3nc(Cc4c(F)ccc(F)c4F)n4cc(F)ccc34)nc(N)c21 [Example 60, 4-amino-2-[6-fluoro-3-(2,3,6-trifluorobenzyl)imidazo[1,5-a]pyridin-1-yl]-5,5-dimethyl-5,7-dihydro-6H-pyrrolo[2,3-d]pyrimidin-6-one] | 7.51
3 | CC1(C)C(=O)Nc2nc(-c3nn(CCC(F)(F)C(F)(F)F)c4cc(Cl)ccc34)nc(N)c21 [Example 111, 4-amino-2-[6-chloro-1-(3,3,4,4,4-pentafluorobutyl)-1H-indazol-3-yl]-5,5-dimethyl-5,7-dihydro-6H-pyrrolo[2,3-d]pyrimidin-6-one] | 7.08
